This is an account of results in article PMC7719162, “Positioning of an unprecedented spiro[5.5]undeca ring system into kinase inhibitor space” (Scientific Reports, 2020).

Where two headings read alike, the source gives them in different places.

The target of test [1] is T1, Haspin (Homo sapiens, UniProt Q8TF76).
T1 construct: purchased Reaction Biology Corp
T1 sequence (Q8TF76 1-798): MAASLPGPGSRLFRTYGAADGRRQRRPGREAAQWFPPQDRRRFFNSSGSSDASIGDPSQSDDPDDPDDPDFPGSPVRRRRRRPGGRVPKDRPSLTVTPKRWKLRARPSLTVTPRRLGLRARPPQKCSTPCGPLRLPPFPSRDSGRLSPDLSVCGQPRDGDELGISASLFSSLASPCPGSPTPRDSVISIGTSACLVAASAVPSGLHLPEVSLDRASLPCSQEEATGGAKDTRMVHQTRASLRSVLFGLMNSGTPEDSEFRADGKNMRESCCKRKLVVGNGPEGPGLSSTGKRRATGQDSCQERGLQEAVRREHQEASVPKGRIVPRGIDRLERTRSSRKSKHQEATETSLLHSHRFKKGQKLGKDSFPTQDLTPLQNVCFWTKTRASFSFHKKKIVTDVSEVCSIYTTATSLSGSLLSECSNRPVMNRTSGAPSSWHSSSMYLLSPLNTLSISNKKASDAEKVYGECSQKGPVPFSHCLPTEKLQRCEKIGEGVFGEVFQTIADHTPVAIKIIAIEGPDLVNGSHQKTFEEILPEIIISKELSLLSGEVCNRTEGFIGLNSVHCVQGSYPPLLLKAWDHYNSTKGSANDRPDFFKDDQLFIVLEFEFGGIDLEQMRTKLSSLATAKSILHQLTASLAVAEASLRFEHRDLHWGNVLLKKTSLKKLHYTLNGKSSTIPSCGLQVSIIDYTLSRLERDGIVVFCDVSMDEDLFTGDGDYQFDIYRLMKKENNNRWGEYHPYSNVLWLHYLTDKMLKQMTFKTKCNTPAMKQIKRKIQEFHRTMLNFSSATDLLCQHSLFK
Conditions: cited from earlier work.

Test [2] has as its target T2, CDK3/cyclin E (Homo sapiens, UniProt Q00526).
T2 construct: purchased Reaction Biology Corp
Conditions: cited from earlier work.

Test [3] concerns the target T3, ARK5/NUAK1 (Homo sapiens, UniProt O60285).
T3 construct: purchased Reaction Biology Corp
T3 sequence (O60285 1-661): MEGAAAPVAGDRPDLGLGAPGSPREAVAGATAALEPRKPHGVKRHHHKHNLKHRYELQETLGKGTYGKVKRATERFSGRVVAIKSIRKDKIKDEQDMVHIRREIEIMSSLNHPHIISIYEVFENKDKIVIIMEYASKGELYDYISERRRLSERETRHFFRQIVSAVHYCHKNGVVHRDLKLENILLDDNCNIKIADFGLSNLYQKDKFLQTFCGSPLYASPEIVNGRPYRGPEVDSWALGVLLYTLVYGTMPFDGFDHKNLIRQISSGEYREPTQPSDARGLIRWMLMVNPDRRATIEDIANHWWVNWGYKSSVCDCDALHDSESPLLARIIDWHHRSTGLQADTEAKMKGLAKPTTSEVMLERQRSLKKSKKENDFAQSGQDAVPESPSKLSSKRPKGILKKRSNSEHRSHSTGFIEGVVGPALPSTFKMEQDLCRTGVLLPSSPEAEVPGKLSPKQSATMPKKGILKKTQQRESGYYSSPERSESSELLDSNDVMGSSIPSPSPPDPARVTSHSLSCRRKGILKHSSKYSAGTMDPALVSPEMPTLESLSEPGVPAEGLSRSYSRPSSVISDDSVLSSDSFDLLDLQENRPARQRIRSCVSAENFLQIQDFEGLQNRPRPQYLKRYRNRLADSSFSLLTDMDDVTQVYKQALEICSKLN
Conditions: cited from earlier work.

The target of test [4] is T4, PKN2/PRK2 (Homo sapiens, UniProt Q16513).
T4 construct: purchased Reaction Biology Corp
Conditions: cited from earlier work.

Test [5] has as its target T5, JNK2 (Homo sapiens, UniProt P45984).
T5 construct: purchased Reaction Biology Corp
Conditions: cited from earlier work.

Test [6] addresses T6, P38b/MAPK11 (Homo sapiens, UniProt Q15759).
T6 construct: purchased Reaction Biology Corp
Conditions: cited from earlier work.

Test [7] deals with T7, CDK1/cyclin B (Homo sapiens, UniProt P06493).
T7 construct: purchased Reaction Biology Corp
Conditions: cited from earlier work.

Test [8] addresses T8, PI4Ka (Homo sapiens, UniProt P42356).
T8 construct: purchased Reaction Biology Corp
In words: Kinase panel assay (lipid kinase). The format is biochemical. Conditions: 30 μM compound, ATP 10 μM, duplicates Data 1/Data 2.

Test [9] has as its target T2, CDK3/cyclin E. In words: Kinase panel assay (radiolabelled). Conditions: ATP 10 μM. In kind it is biochemical.
The test system of test [10] is iNOS. In words: Western blot of iNOS in LPS-induced BV-2 cells. The format is cell-based, murine. On the procedure:
Western blot analysis was performed to see the protein expression of the iNOS and COX-2 in the BV2 cells. BV2 cells were seeded in a 6 well plate at the density of 6 × 10^5 cells/well overnight and cells were treated as mentioned earlier in the cell treatment section and this time treatment was performed for 6 h only. After 6 h, cells were harvested and lysed with lysis buffer containing (RIPA, protease inhibitor & phosphatase inhibitor), protein estimation was performed using biorad assay and the 30 µg of total protein was separated by 8% SDS-PAGE gel electrophoresis, transferred to nitrocellulose membranes, and incubated with primary antibodies against tubulin, iNOS, COX-2, and α-tubulin. […] membranes were incubated with horseradish peroxidase-conjugated secondary antibodies, and protein bands were visualized using ECL Western Blotting Detection Reagents (Amersham Pharmacia Biotech). Quantitative analysis of the protein bands was quantified using Image Master 2D Elite software (version 3.1, Amersham Pharmacia Biotech).
For orientation: A western blot detects proteins with antibodies after separation by electrophoresis.

For test [11], the target named is T9, ROCK2 (Homo sapiens, UniProt O75116).
T9 construct: purchased Reaction Biology Corp
T9 sequence (O75116 whole entry): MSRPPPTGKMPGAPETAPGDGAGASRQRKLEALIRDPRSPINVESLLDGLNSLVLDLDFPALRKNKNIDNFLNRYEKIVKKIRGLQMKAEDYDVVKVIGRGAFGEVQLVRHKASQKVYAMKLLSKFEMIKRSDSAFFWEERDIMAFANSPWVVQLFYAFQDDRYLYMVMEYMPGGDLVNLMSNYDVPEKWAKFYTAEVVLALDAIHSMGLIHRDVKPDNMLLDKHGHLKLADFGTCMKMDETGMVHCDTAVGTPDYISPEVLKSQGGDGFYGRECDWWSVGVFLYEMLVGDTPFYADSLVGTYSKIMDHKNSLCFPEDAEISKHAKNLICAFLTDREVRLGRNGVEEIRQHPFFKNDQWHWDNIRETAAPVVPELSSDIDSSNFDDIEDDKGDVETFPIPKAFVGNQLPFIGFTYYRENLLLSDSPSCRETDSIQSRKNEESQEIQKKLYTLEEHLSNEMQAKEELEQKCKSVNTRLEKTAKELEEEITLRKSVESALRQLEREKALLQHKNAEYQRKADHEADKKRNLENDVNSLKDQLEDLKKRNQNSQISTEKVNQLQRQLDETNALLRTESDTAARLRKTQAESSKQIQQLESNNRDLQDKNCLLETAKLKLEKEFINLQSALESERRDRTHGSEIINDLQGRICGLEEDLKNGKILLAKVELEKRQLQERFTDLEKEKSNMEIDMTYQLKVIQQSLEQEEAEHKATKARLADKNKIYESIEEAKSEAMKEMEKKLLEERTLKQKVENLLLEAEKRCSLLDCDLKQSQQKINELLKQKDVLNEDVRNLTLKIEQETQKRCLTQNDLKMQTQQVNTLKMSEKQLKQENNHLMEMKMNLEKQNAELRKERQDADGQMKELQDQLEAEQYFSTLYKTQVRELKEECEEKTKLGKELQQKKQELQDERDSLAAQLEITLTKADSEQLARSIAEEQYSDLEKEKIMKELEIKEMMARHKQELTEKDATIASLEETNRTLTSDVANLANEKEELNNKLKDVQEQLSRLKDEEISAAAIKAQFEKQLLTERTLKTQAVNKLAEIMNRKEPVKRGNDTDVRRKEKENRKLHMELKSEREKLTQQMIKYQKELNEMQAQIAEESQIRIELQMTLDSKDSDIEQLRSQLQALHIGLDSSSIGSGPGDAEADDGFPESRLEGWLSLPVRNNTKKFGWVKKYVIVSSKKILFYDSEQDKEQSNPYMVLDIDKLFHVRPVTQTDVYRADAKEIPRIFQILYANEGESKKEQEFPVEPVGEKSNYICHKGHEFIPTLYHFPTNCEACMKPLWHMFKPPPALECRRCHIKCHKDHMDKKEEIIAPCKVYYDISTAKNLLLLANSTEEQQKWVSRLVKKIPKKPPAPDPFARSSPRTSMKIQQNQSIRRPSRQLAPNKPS
Description: Kinase panel assay (radiolabelled). In kind it is biochemical. Conditions: ATP 10 μM.

The target in test [12] is T10, TRKB (Homo sapiens, UniProt Q16620).
T10 construct: purchased Reaction Biology Corp
T10 sequence (Q16620 32-822): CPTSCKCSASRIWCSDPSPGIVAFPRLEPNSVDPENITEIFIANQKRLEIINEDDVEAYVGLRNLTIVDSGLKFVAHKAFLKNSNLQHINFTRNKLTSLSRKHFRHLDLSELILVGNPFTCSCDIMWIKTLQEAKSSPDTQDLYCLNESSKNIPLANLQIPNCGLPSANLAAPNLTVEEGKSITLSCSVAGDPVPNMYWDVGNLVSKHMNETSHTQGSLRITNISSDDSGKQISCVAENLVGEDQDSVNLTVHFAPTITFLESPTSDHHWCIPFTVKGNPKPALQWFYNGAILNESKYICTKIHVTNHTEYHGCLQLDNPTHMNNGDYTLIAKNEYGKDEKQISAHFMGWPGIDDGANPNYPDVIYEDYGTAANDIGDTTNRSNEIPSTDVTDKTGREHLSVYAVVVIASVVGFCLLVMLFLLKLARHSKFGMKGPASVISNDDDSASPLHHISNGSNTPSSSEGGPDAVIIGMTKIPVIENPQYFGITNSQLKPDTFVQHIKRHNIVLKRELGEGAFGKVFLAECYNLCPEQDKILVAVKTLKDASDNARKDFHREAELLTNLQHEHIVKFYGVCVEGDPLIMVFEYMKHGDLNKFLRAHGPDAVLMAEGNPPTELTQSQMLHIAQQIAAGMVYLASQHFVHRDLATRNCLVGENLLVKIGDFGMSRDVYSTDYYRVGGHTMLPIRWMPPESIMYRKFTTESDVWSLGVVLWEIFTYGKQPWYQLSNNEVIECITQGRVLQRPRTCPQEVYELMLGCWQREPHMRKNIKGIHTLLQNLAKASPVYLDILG
In words: Kinase panel assay (radiolabelled). In kind it is biochemical. Conditions: ATP 10 μM.

Test [13] deals with T11, TRKA (Homo sapiens, UniProt P04629).
T11 construct: purchased Reaction Biology Corp
T11 sequence (P04629 33-796): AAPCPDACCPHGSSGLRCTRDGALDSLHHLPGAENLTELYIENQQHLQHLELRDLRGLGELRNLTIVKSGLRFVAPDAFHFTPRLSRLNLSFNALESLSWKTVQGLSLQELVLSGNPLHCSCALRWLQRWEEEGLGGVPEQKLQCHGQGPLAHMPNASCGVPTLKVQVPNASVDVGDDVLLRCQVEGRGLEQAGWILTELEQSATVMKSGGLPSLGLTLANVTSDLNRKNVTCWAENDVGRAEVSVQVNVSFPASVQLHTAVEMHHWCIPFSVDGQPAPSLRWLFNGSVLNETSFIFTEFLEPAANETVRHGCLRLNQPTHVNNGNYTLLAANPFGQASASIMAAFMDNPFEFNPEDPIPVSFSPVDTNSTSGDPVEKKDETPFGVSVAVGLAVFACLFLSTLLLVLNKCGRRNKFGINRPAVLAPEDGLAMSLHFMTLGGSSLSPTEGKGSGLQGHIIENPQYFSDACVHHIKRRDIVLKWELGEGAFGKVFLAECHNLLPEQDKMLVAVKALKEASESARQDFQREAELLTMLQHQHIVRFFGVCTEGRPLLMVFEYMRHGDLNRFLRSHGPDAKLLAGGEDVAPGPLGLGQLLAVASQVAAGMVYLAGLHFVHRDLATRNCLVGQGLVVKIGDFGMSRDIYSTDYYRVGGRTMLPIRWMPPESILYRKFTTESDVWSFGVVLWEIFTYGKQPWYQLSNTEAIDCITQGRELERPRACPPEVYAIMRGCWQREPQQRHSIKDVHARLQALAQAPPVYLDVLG
In words: Kinase panel assay (radiolabelled). In kind it is biochemical. Conditions: ATP 10 μM.

The target of test [14] is T12, JNK3 (Homo sapiens, UniProt P53779).
T12 construct: purchased Reaction Biology Corp
T12 sequence (P53779 whole entry): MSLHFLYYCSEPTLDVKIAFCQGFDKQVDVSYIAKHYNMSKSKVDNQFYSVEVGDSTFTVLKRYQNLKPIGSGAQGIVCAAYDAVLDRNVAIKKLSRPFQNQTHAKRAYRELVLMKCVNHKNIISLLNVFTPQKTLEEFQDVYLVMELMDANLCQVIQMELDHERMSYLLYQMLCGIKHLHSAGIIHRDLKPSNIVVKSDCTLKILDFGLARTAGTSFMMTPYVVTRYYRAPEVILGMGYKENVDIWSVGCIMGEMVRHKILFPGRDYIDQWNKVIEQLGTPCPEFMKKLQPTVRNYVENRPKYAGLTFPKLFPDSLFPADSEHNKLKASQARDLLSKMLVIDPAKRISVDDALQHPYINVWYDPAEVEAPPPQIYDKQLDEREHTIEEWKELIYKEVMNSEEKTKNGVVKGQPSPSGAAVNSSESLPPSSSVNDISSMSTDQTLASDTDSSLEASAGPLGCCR
Description: Kinase panel assay (radiolabelled). The format is biochemical. Conditions: ATP 10 μM.

Test [15] addresses T13, PI3K (p110a(E545K)/p85a) (Homo sapiens, UniProt P42336, E545K).
T13 construct: purchased Reaction Biology Corp
In words: Kinase panel assay (lipid kinase). In kind it is biochemical. Conditions: 30 μM compound, ATP 10 μM, duplicates Data 1/Data 2.

Test [16] addresses T14, PI3K (p110a/p65a) (Homo sapiens, UniProt P42336).
T14 construct: purchased Reaction Biology Corp
Description: Kinase panel assay (lipid kinase). Conditions: 30 μM compound, ATP 10 μM, duplicates Data 1/Data 2. The format is biochemical.

The mark [17] stands for this setting: read-out: % Enzyme Activity (relative to DMSO controls).
The mark [18] stands for this setting: 30 μM compound, duplicates Data 1/Data 2.
Setting [19] is: 30 μM compound, duplicates Data 1/Data 2, read-out: % Enzyme Activity (relative to DMSO controls).
Where [20] appears, read: 30 μM, average ± SD, read-out: % Residual Activity at 30 μM.

T2 sequence (Q00526 whole entry): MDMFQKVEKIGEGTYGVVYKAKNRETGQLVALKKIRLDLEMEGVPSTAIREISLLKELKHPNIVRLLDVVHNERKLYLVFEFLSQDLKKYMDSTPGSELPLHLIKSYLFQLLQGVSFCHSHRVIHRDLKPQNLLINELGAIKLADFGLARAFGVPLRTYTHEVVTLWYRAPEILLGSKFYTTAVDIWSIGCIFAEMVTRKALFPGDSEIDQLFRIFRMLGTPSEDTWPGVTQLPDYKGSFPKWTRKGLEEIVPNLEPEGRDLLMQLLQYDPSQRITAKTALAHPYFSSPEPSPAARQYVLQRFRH
T2 sequence (P24864 whole entry partner): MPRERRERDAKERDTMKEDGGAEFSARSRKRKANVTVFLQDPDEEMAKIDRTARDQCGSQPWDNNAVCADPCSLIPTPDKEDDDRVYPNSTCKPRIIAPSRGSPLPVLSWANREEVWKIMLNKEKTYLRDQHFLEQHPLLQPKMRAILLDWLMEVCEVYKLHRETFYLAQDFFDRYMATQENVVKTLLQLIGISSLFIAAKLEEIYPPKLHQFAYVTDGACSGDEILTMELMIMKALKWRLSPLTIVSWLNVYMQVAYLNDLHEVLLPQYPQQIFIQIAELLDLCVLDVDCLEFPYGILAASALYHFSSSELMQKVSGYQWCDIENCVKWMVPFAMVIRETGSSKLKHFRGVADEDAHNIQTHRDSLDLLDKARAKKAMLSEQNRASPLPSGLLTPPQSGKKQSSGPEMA
T5 sequence (P45984 whole entry): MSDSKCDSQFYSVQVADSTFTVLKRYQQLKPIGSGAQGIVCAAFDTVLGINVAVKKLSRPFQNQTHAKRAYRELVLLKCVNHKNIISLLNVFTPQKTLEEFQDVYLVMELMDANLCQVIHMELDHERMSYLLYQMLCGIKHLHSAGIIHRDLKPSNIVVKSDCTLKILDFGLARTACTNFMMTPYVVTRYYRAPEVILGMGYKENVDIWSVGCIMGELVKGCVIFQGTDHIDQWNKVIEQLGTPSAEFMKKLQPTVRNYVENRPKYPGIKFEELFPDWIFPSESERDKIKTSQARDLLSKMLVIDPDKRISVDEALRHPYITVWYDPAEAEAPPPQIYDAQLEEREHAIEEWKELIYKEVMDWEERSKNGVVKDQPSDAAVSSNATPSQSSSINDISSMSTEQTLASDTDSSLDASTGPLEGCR
T6 sequence (Q15759 whole entry): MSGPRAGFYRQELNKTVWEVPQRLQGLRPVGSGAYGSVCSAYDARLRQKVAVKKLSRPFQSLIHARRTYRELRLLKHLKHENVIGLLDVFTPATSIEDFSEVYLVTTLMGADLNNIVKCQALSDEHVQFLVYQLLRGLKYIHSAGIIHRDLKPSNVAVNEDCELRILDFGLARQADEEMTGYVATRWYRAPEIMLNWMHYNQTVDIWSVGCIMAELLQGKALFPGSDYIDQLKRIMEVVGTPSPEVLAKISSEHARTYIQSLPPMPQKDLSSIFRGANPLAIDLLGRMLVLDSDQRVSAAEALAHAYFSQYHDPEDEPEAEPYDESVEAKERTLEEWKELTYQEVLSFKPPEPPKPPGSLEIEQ

As to `O=C1C=CC2(C=C1)OCC(Cc1cc(C(F)(F)F)cc(C(F)(F)F)c1)C(=O)N2c1ccccc1` (racemic) [1c], the “% Residual Activity at 30 μM” value in [1] is 66.4 ± 0.5%; in test [2], 59.3 ± 1.2%; in test [3] it was 70.8 ± 0.1%; in test [4], 63.5 ± 1.8%; in test [5], 58.3 ± 0.7%; in test [6], 87.0 ± 1.1%. The “% Residual Activity at 30 μM” value in test [7] is given as 46.0 ± 0.8%.

Consider `O=C1C=CC2(C=C1)OCC(Cc1cn(-c3cccc(Cl)c3)nn1)C(=O)N2c1ccccc1` (stereo not drawn) [2d, 3-((1-(3-Chlorophenyl)-1H-1,2,3-triazol-4-yl)methyl)-5-phenyl-1-oxa-5-azaspiro[5.5]undeca-7,10-diene-4,9-dione], for which the “% Enzyme Activity (relative to DMSO controls)” value in [8] was 101.50%; in test [9] (setting [18]), 59.02%; in test [11] (setting [18]), 98.38%; in test [12] (setting [18]), 101.29%; in test [13] (setting [18]), 115.47%; in [14] (setting [18]), 95.42%. Moreover, the “% Enzyme Activity (relative to DMSO controls)” value is 206.92% in test [15] and 82.25% in test [16]. The remaining activity at 30 µM in test [8] (setting [17]) is 101%; in [9] (setting [19]), 61.6%; in test [9] (setting [20]), 60.3 ± 1.9%; in [11] (setting [19]), 100%; in [11] (setting [20]) it was 99.4 ± 1.5%; in test [12] (setting [19]), 103%. The remaining activity at 30 µM in [12] (setting [20]) was 102 ± 1.3%; in test [13] (setting [19]), 119%; in test [13] (setting [20]), 117 ± 2.6%; in [14] (setting [19]) it was 95.5%; in [14] (setting [20]), 95.4 ± 0.1%; in [15] (setting [17]) it was 206%. Also, the remaining activity at 30 µM in test [16] (setting [17]) amounted to 83.8%. Besides, the “iNOS expression level” value in [10] (0.01 to 1 uM, LPS-induced BV-2 cells) was “downregulated iNOS and COX-2 more efficiently than compound 2a”. Moreover, the “potency relative to L-NMMA” value in test [10] (regulation of iNOS and COX-2, LPS-induced BV-2 cells) is reported as 20 fold.
